Molecules are shown by their SMILES.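 How tested: cells in 96-well plates exposed to compound for 48 hours at five concentrations. Abbreviation: GI50, concentration required for 50% inhibition of growth. TGI: total growth inhibition.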

Ten compounds from PubChem BioAssay (NCI) can be followed below.

Some test systems named below: 786-0 renal; HS 578T breast; KM12 colon; NCI-H522 lung; SNB-19 CNS; SR leukemia; T-47D breast; TK-10 renal; UACC-257 melanoma; HOP-92 NSCLC.
Assay in all cases: NCI tumour cell line growth inhibition, 48 h

In the case of `Cc1nc(N)sc1N=Nc1cc(Cl)c([N+](=O)[O-])cc1Cl`, the TGI with 786-0 renal was > 100 µM; in the experiment with HS 578T breast, 95.9 µM; in the experiment on KM12 colon, 37.7 µM; in the experiment with NCI-H522 lung, 35.5 µM; in the experiment on SNB-19 CNS it was > 100 µM; in the experiment with SR leukemia, 26.5 µM. The results for the TGI in the experiment with T-47D breast, in the experiment on TK-10 renal and in the experiment with UACC-257 melanoma were > 100 µM, 52.1 µM and 44.7 µM, respectively.
As for `CN(C)c1ccc(/C=C/c2ccnc3ccccc23)cc1N`, the TGI in the experiment on 786-0 renal was 53.5 µM; in the experiment on HOP-92 NSCLC it was 5.87 µM; with HS 578T breast, 61.3 µM; with KM12 colon it was 65.4 µM; in the experiment with SNB-19 CNS it was 28.5 µM; in the experiment with SR leukemia, 5.87 µM. Also, the TGI with T-47D breast worked out at 5.36 µM; with TK-10 renal it was 20.2 µM; with UACC-257 melanoma, 7.75 µM.
In the case of `CCCC(=O)Nc1cc([N+](=O)[O-])c([N+](=O)[O-])cc1OC`, the TGI in the experiment with 786-0 renal was > 100 µM; with HS 578T breast, 46.5 µM; with KM12 colon, 27.2 µM; with NCI-H522 lung, 27.6 µM; with SNB-19 CNS it was 30.7 µM; in the experiment on SR leukemia it was 21.5 µM. In addition, the TGI came out at 19.4 µM with T-47D breast, 31 µM with TK-10 renal and 35.4 µM with UACC-257 melanoma.
On to `COc1cc(-n2cc(-c3ccc(F)cc3)[nH]c2=S)cc(OC)c1OC`, for which the GI50 in the experiment with 786-0 renal was 63.6 µM; with HOP-92 NSCLC it was 45.5 µM; in the experiment with HS 578T breast, 18.3 µM; with KM12 colon, > 100 µM; in the experiment with NCI-H522 lung it was > 100 µM; in the experiment on SNB-19 CNS, 36.6 µM. The GI50 in the experiment with T-47D breast was 72.4 µM; with TK-10 renal it was > 100 µM; in the experiment on UACC-257 melanoma, > 100 µM. Moreover, the TGI with 786-0 renal, in the experiment with HOP-92 NSCLC, with HS 578T breast, in the experiment with KM12 colon, in the experiment with NCI-H522 lung and in the experiment on SNB-19 CNS was > 100 µM in each case. For the same compound, the TGI in the experiment with T-47D breast, in the experiment on TK-10 renal and in the experiment with UACC-257 melanoma was > 100 µM throughout.
As for `COc1ccc2c(c1)C(=O)/C(=C/c1ccc([N+](=O)[O-])s1)O2`, the GI50 in the experiment with 786-0 renal is 1.47 µM; in the experiment on HOP-92 NSCLC, 0.23 µM; in the experiment on HS 578T breast, 0.269 µM; in the experiment on KM12 colon, 0.235 µM; in the experiment on NCI-H522 lung, 0.195 µM; in the experiment on SNB-19 CNS it was 0.522 µM. Moreover, the results for the GI50 in the experiment on T-47D breast, in the experiment on TK-10 renal and in the experiment with UACC-257 melanoma were 0.248 µM, 0.767 µM and 0.819 µM, respectively. Besides, the TGI turned out to be 6.73 µM in the experiment with 786-0 renal; 1.23 µM in the experiment on HOP-92 NSCLC; 0.51 µM in the experiment on KM12 colon; 0.395 µM in the experiment with NCI-H522 lung; 2 µM in the experiment with SNB-19 CNS; 0.728 µM with T-47D breast. Also, the TGI in the experiment with UACC-257 melanoma is 3.11 µM.
With `COc1cc2c3c(n(CCCCNC(=O)OCC4c5ccccc5-c5ccccc54)c(=O)c2cc1OC)-c1cc2c(cc1C3=O)OCO2`, the GI50 was 4.67 µM in the experiment with 786-0 renal; 1.49 µM with HOP-92 NSCLC; 80.7 µM with HS 578T breast; 22 µM with KM12 colon; 11.1 µM in the experiment with NCI-H522 lung; 81.6 µM in the experiment with SNB-19 CNS. The GI50 in the experiment on T-47D breast is 95.8 µM; in the experiment with TK-10 renal it was 56.3 µM; with UACC-257 melanoma, > 100 µM. Further, the TGI with 786-0 renal is 28.1 µM; in the experiment on HOP-92 NSCLC, 9.69 µM; with HS 578T breast, > 100 µM; in the experiment with KM12 colon, > 100 µM; in the experiment with NCI-H522 lung it was > 100 µM; in the experiment on SNB-19 CNS it was > 100 µM. Further, the TGI in the experiment on T-47D breast, in the experiment with TK-10 renal and in the experiment with UACC-257 melanoma was > 100 µM in each case.
Regarding `N#CCC12CC=CCC1=C(O)C(=O)c1ccc(O)cc12` (configuration not stated), the TGI in the experiment on 786-0 renal, in the experiment on HS 578T breast, in the experiment with KM12 colon, in the experiment with NCI-H522 lung, in the experiment with SNB-19 CNS and in the experiment on SR leukemia was > 100 µM in each case. Besides, the TGI in the experiment on T-47D breast, in the experiment on TK-10 renal and in the experiment on UACC-257 melanoma was > 100 µM throughout.
For `COC(=O)c1cc2c3ccccc3n3c(=O)c4cc5cc(OC)c(N(S(=O)(=O)c6ccc(C)cc6)S(=O)(=O)c6ccc(C)cc6)cc5nc4c(n1)c23`, the GI50 with 786-0 renal was 3.23 µM; with HOP-92 NSCLC, 4.42 µM; with HS 578T breast it was 4.97 µM; in the experiment with KM12 colon, > 100 µM; with SNB-19 CNS, 5.8 µM; with SR leukemia it was 41.4 µM. Moreover, the results for the GI50 in the experiment with T-47D breast, with TK-10 renal and in the experiment with UACC-257 melanoma were > 100 µM, 8.92 µM and > 100 µM, respectively. The TGI in the experiment on 786-0 renal was 14.5 µM; in the experiment on HOP-92 NSCLC, 21.3 µM; in the experiment with HS 578T breast it was 54.2 µM; in the experiment with KM12 colon it was > 100 µM; in the experiment on SNB-19 CNS it was 32 µM; in the experiment with SR leukemia, > 100 µM. Also, the TGI in the experiment with T-47D breast is > 100 µM; in the experiment on TK-10 renal, 23.6 µM; in the experiment on UACC-257 melanoma it was > 100 µM.
Regarding `CO/N=C(\COc1ccc2c(c1)oc(=O)c1cc(OC)ccc12)c1cccc(OC)c1`, the GI50 with 786-0 renal, in the experiment on HOP-92 NSCLC, in the experiment on HS 578T breast, in the experiment on KM12 colon, in the experiment with NCI-H522 lung and with SNB-19 CNS was > 100 µM each time. For the same compound, the GI50 in the experiment on T-47D breast, in the experiment with TK-10 renal and in the experiment on UACC-257 melanoma was > 100 µM in each case. Moreover, the TGI in the experiment with 786-0 renal, in the experiment with HOP-92 NSCLC, with HS 578T breast, in the experiment with KM12 colon, in the experiment on NCI-H522 lung and in the experiment on SNB-19 CNS was > 100 µM in each case. Besides, the TGI in the experiment on T-47D breast, with TK-10 renal and in the experiment on UACC-257 melanoma was > 100 µM each time.
For the compound `COc1cc(C2CC(c3ccc(Nc4ccnc5cc(Cl)ccc45)cc3)=NN2C=O)cc(OC)c1OC` (configuration not stated), the GI50 was 2.31 µM with 786-0 renal; 1.83 µM with HOP-92 NSCLC; 3.24 µM in the experiment on HS 578T breast; 5.87 µM with KM12 colon; 18.2 µM in the experiment with SNB-19 CNS; 2.58 µM in the experiment with SR leukemia. In addition, the GI50 in the experiment with T-47D breast was 2.33 µM; in the experiment with TK-10 renal, 3.09 µM; in the experiment on UACC-257 melanoma, 2.84 µM. The TGI with 786-0 renal was 4.8 µM; with HOP-92 NSCLC, 5.59 µM; with HS 578T breast it was 27.7 µM; in the experiment with KM12 colon, > 100 µM; in the experiment on SNB-19 CNS it was > 100 µM; in the experiment on SR leukemia, 6.49 µM. Also, the TGI was 7.4 µM in the experiment with T-47D breast, 9.4 µM in the experiment with TK-10 renal and 8.28 µM with UACC-257 melanoma.
